# Source: patent publication US10583109B2, “Use of silver(I) complexes as anticancer agents” (University of Johannesburg, priority 2012, dated 2020)
# Key:
# [1] = tested on: SNO-oesophageal cancer cells; assay type: cell-based; details: 100 μM, 24 hour treatment
# Protocol: The SNO-oesophageal cancer cells were cultured in Dulbecco's modified Eagles medium (DMEM) containing 10% Foetal bovine serum (FBS), 0.8% Penicillin/Streptomycin/Fungizone and 0.2% Gentamycin. The SNO-oesophageal cancer cells were subcultured every 48 hours and incubated at 37° C. under a 5% CO2 humidified atmosphere. After 48 hours the cells were trypsinized and plated (6×10^5 cells) in 3.5 cm culture dishes and left to cultivate for 24 hours.
# MCF-7 breast cancer cells, in terms of a first study, and SNO-oesophageal cancer cells, in terms of a second study, were treated with 10 μM silverthiocyanide complexes (1)-(5), as well as their ligands (Ligand-1 to Ligand-5) over a 24 hour incubation period. These complexes were dissolved in 0.1% Dimethyl sulfoxide (DMSO). The DMSO alone (vehicle control) decreased the viability with approximately 2.2%, signifying its minimal influence in cancer cell growth. For comparative purposes, 100 μM Cisplatin (CDDP) and 25% H2O2 was included which respectively serves as the apoptotic and necrotic controls. Cisplatin was prepared in 0.9% NaCl, whereas H2O2 was prepared in the supplemented DMEM media right before treatment. An untreated negative control (UT) was exposed to similar conditions as the treated cells and monitored during the experimental study.
# An AlamarBlue® Viability® (Serotec, UK) assay was performed after a 24 hour treatment with complexes (1)-(5) and their ligands (Ligand-1 to Ligand-5, respectively) to evaluate the cellular effect the instant complexes (and their ligands) may have on the cancer cells. AlamarBlue® dye (10%) was incubated with trypsinized cells over a 2 hour period before the fluorescence was measured with a Synergy HT Multi-Detection Microplate reader (BioTek, Winooski, Vt.) at wavelengths of 530 nm and (excitation) and 590 nm (emission). This fluorescent based assay in particular involves the metabolic oxidation-reduction reaction of resazurin to a reduced resorufin product that is directly proportional to the amount of viable cells.
# The percentage cellular viability of differentially treated SNO-oesophageal cells was determined using an AlamarBlue® assay, as depicted in FIG. 7. Different controls (grey) were included: untreated, 0.1% DMSO solvent and apoptotic control (100 μM Cisplatin) as well as the corresponding ligands (10 μM) of complexes (1)-(5). Cells were treated with silver(I) thiocyanate phosphine complexes (1)-(5) at a concentration of 10 μM. The percentages were calculated with respect to the control and error bars were constructed on the basis of Standard Error of the Mean (SEM) where n=9 except for the ligand of compound 4 (n=8). The P-values (*P<0.001 and **P<0.0001) were determined with the Student's T-test to evaluate the significant difference.
# The cells were thereafter treated with complexes (6)-(9) at a concentration of 10 μM prepared in 0.1% DMSO. Treatment with either 25% H2O2 or 100 μM CDDP served as controls for necrosis and apoptosis respectively. The CDDP was prepared in 0.9% NaCl while the H2O2 was diluted with supplemented DMEM prior to treatment.
# A suspension (100 μl) of the differentially treated cells was added in triplicate to a microtiter plate. In the dark, AlamarBlue® dye (10 μl) was added to each well containing a sample, followed by a 2 hour incubation in a 5% CO2 incubator at 37° C. The fluorescence was read on a Synergy HT Multi-Detection Microplate reader at a wavelength of 530 nm and (excitation) and 590 nm (emission). In terms of this study, the apoptotic control CDDP (100 μM) was included. Error bars represent the standard error of the mean (SEM) where n=9. The Student's T-test was used to determine the significant difference of the treatments with respect to DMSO (P*<0.05 and P**<0.001). The silver(I) nitrate phosphine complexes under evaluation decreased the cancer cell viability to a large extent compared to DMSO except complex (9).
# SNO-oesophageal cancer cells were a gift from the University of Pretoria, RSA. […]
# Caspase-3/7 = assay: Caspase-Glo 3/7 assay in SNO-oesophageal cancer cells; assay type: cell-based; details: 100 μM, 24 hours treatment
# Protocol: The Caspase-Glo®3/7 assay was used to confirm that the structural changes observed are due to apoptotic cell death. In this luminescent based assay, a 1:1 ratio of the Caspase-Glo® reagent was added to treated cells into a microtiter plate. The plate was gently agitated for 30 seconds and incubated for 30 minutes at room temperature. The whole luminescent intensity was measured using a Synergy HT Multi-Detection Microplate reader, where the intensity of the luminescence is proportional to the Caspase-3/7 concentration.
# The error bars where constructed based on the standard error of the mean (SEM) where n=6. The significant difference were calculated with respect to the vehicle control (P<**0.001). A relative increase in expression was observed throughout.
# [2] = tested on: A375 malignant melanoma cancer cells; assay: Celltitre-Glo Luminescent Cell Viability Assay (ATP) in A375 cells; assay type: cell-based, human; details: 10 µM
# Protocol: (§1) For purposes of the Celltitre-Glo™ Luminescent Cell Viability [Promega, USA] assay, a 1:1 mixture of cell sample to Celltitre-Glo™ substrate/buffer mix reagent, in duplicate, was added to 96-well black plate, shaken for 30 seconds at room temperature and then further incubated for 30 minutes. Whole luminescence was then measured with a Synergy HT Multi-Detection Microplate Reader. The CytoTox-ONE™ Homogenous Membrane Integrity [Promega, USA] assay is a rapid fluorescent assay that measures the level of lactate dehydrogenase leaked from damaged membranes, therefore, the amount of fluorescence measured is directly proportional to the amount of lysed/damaged cells. In triplicate, a 1:1 cell sample to CytoTox-ONE™ substrate/buffer mix reagent was added to a 96-well clear plate, shaken for 30 seconds followed by incubation for 10 minutes. A CytoTox-ONE™ stop solution was added to each sample followed by a further 30 second shake on an orbital shaker. […] The fluorescence was then measured with a Synergy HT Multi-Detection Microplate Reader at an excitation wavelength of 530 nm and emission wavelength of 590 nm. FIG. 25 depicts the percentage ATP and Lactate Dehydrogenase (LDH) measured in differentially treated A375 malignant melanoma cancer cells as determined by the Celltitre-Glo™ Luminescent Cell Viability Assay and CytoTox-ONE™ Membrane Integrity Assay respectively. […]
# [3] = tested on: A375 malignant melanoma cancer cells; assay: AlamarBlue viability and proliferation assay of A375 malignant melanoma cancer cells; assay type: cell-based, human; details: concentration range 1.0 μM-10.0 μM, viability as percentage of 1.0% DMSO vehicle control, quadratic equation
# Protocol: A375 melanoma cancer cells originate from an immortal cell line from human malignant melanoma from skin (ATCC no CRL-1619).
# A375 malignant melanoma cancer cells were cultured in Dulbecco's Modified Eagle's Medium (DMEM), 13.53 g/L with sodium bicarbonate (NaHCO3), 3.7 g/L supplemented with 10% fetal bovine serum (FBS), and 1% Penicillin/Streptomycin/Fungizone in 75 cm^3 sterile culture flasks. Cells were incubated at 37° C. with 5% CO2 in a humidified atmosphere and were subcultured twice a week. Cells were subcultured every 48 hours and used between Passages 3 and 7. […]
# An AlamarBlue® (Serotec, UK) assay was done to investigate the proliferation capabilities of the differentially treated cells. AlamarBlue® dye (10%) was incubated with trypsinized cells over a 2-hour period before the fluorescence was measured with a Synergy HT Multi-Detection Microplate reader (BioTek, Winooski, Vt.) at wavelengths of 530 nm and (excitation) and 590 nm (emission). […]
# Treatment volumes were 1.0 μL of 1-10 μM range of stock solutions. Fluorescence was measured with 530 nm excitation wavelength and 590 nm emission wavelength. FIG. 21 represents 3 biological repeats measured in triplicate. DMEM reference blanks were averaged and subtracted from all readings and cellular viability values were calculated as percentage of the 1.0% DMSO vehicle control (VC). […]
# Caspase 3/7 = assay: Caspase-GLO 3/7 assay in A375 cells; assay type: cell-based, human; details: 10 μM, 24 hour treatments
# From the text: Caspase-GLO™ 3/7, 8 and 9 Assays are luminescent assays that measure Caspase activities, which have key effector functions in intrinsic and extrinsic apoptosis, therefore the amount of luminescence measured is proportional to the amount of Caspase activity present. The assays are based on the principle that after Caspase cleavage, a substrate containing the tetrapeptide DEVD sequence binds with Caspase and is released for a luminescent reaction with a thermostable luciferase enzyme. In duplicate, a 1:1 cell sample to Caspase-Glo™ substrate/buffer mix reagent was added into 96-well black plates, then shaken for 30 seconds at room temperature followed by a 1 hour incubation. Whole luminescence was then measured with a Synergy HT Multi-Detection Microplate Reader.
# FIG. 26 depicts Caspase 3/7, 8 and 9 levels in differentially treated A375 malignant melanoma cancer cells as determined by relative luminescence recorded using Caspase-GLO™ assays. Caspase levels represented as a percentage of 1.0% DMSO Vehicle Control (VC) set at 100%. Cells treated with: CDDP=100 μM Cisplatin Positive Apoptotic Control and then 10 μM concentrations of complex (13) and complex (14). […]
# [4] = tested on: A375 malignant melanoma cancer cells; assay: CytoTox-ONE Membrane Integrity Assay (LDH) in A375 cells; assay type: cell-based, human; details: 10 µM
# Protocol: as §1
Compound,cells killed [1] [%],Caspase induction (Caspase-3/7) [fold increase],ATP levels (cellular viability) [2],IC50 [3] [µM],Caspase 3/7 levels compared to the VC (Caspase 3/7),LDH levels compared to the VC [4]
"N.N.[Cl][Pt][Cl] [Cisplatin, reference compound]",~74,2,,,,
"[Br][Ag]([PH](c1ccccc1)(c1ccccc1)c1ccccc1)([PH](c1ccccc1)(c1ccccc1)c1ccccc1)[PH](c1ccccc1)(c1ccccc1)c1ccccc1 [complex (13), AgBr(PPh3)3]",,,less than 20%,5.16,increased,significant increase
"O=[N+]([O-])[O-].[Ag+].c1ccc(P(c2ccccc2)c2ccccc2)cc1.c1ccc(P(c2ccccc2)c2ccccc2)cc1.c1ccc(P(c2ccccc2)c2ccccc2)cc1 [complex (14), AgNO3(PPh3)3]",,,,6.77,increased,significant increase
